From PMC8303886, “Polyphenylglyoxamide-Based Amphiphilic Small Molecular Peptidomimetics as Antibacterial Agents with Anti-Biofilm Activity” (International Journal of Molecular Sciences, 2021)
Several values for one entry are separate records, joined by “and”; a condition that tells them apart may be missing. Equal values may be shown once. Read-outs that look alike come from different tables or passages of the source.

Tests used:
[1] = test system: S. aureus cytoplasmic membrane; test: Cytoplasmic membrane permeability assay (diSC3-5 dye release); format: cell-based, Staphylococcus aureus; conditions: 1× and 2× MIC, read up to 15 min
Text: This dye readily partitions into and aggregates in bacterial cell membranes, quenching its own fluorescence. However, structural damage to the bacterial cell membrane causes a loss in the membrane potential, which results in the leakage of dye from the bacterial cell membrane into the medium and an increase in fluorescence intensity. By detecting changes in fluorescence intensity, the integrity of the bacterial cytoplasmic membrane can be monitored.
Membrane potential sensitive dye diSC3–5 (3,3′-dipropylthiadicarbocyanine iodide), which penetrates inside bacterial cells depending on the membrane potential gradient of the cytoplasmic membrane, was used to determine the bacterial cytoplasmic membrane permeability following the procedure previously described with slight modification. Bacteria (S. aureus) were incubated in MHB with shaking at 37 °C for 16 h. After incubation, the bacteria were washed with 5 mM HEPES, supplemented with 20 mM glucose at pH 7.2 and diluted in the same buffer to an OD600 0.05–0.06 (equivalent to a final concentration of 10^7 CFU/mL bacteria). The diSC3–5 dye was added at 4 μM to the bacterial suspension. […] Fluorescence due to the release of dye was measured with a FLUOstar Omega (BMG Labtech) microplate reader at 5 min intervals at an excitation wavelength of 621 nm and an emission wavelength of 670 nm.

[2] = test system: pre-established S. aureus biofilms; test: Disruption of pre-established S. aureus biofilms (crystal violet assay); format: cell-based, Staphylococcus aureus
Experimental: As bacterial biofilms are one of the major challenges in treating bacterial infection, the ability of the synthesised peptidomimetics to disrupt pre-established biofilms was investigated.
(§1) Bacterial cultures (S. aureus and E. coli) were cultured in MHB at 37 °C with shaking at 120 rpm for 24 h. The resulting bacterial culture was washed twice with MHB with centrifugation after each wash. The bacterial solution was then diluted with fresh MHB to a turbidity of OD660 = 0.1 in MHB (equivalent to 10^8 colony forming unit (CFU)/mL of bacteria), followed by diluting to 10^6 CFU/mL in MHB. A total of 200 µL of the bacterial solution was dispensed to wells in a flat-bottom 96-well plate (Costar). The biofilm was then grown in the plate at 37 °C for 24 h. After incubation, loosely bound cells were washed away with 1× phosphate-buffered saline (PBS, pH 7.4). The biofilms were then supplemented with different concentrations of peptidomimetics dissolved in DMSO and incubated at 37 °C with shaking at 120 rpm for a further 24 h. Biofilms adhered on the plate substratum were quantified, using crystal violet staining as described previously. The experiment was performed in triplicate.

E. coli (K12) = test: Minimum inhibitory concentration (MIC) assay against E. coli; format: cell-based; conditions: Escherichia coli
[3] = test system: S. aureus biofilm formation; test: Inhibition of S. aureus biofilm formation (crystal violet staining); format: cell-based, Staphylococcus aureus
Experimental: In this assay, S. aureus was incubated in the presence of different concentrations of the tested peptidomimetics under a static condition. After overnight incubation, planktonic bacteria were removed, and the remaining biofilms were quantified, using crystal violet staining.
S. aureus was cultured in Muller Hinton broth (MHB; Oxoid) at 37 °C with shaking at 120 rpm for 24 h. The resulting bacterial culture was washed twice with MHB with centrifugation after each wash. The bacterial solution was then diluted with fresh MHB to a turbidity of OD660 = 0.1 in MHB (equivalent to 10^8 colony forming unit (CFU)/mL of bacteria), followed by diluting to 10^6 CFU/mL in MHB. A total of 100 µL of the bacterial solution was added to wells of a 96-well plate (Costar; Sigma-Aldrich, St. Louis, MO, USA) containing 100 µL serially diluted peptidomimetics. After incubation at 37 °C for 24 h, loosely bound cells were washed away with 1× phosphate-buffered saline (PBS, pH 7.4). Biofilms adhered on the plate substratum were quantified, using crystal violet staining as described previously. Untreated bacteria were used as a negative control, where the percentage of biofilm mass reflected 100% biofilm growth. The experiment was performed in triplicate.

P. aeruginosa (PAO1) = test: Minimum inhibitory concentration (MIC) assay against P. aeruginosa; format: cell-based; conditions: Pseudomonas aeruginosa
[4] = test system: MRC-5 normal human lung fibroblasts; test: MTT cytotoxicity assay; format: cell-based; conditions: Homo sapiens, MRC5, 72 h, 72 h drug incubation, read-out: IC50 against MRC-5 normal human lung fibroblasts
Experimental: The IC50 values of the tested peptidomimetics were determined from a dose-response curve. […] The therapeutic indices for each tested peptidomimetic against Gram-positive S. aureus and Gram-negative E. coli were calculated by dividing the IC50 value against human cells by the corresponding MIC value (Table 2).
The toxicity of the peptidomimetics against normal human lung fibroblasts MRC-5 cells was measured, using an MTT (3-(4,5-dimethylthiazol-2-yl)-2,5-diphenyltetrazolium bromide) (Sigma Aldrich, St. Louis, MO, USA) colorimetric assay. The cells were cultured in minimal essential medium (MEM, Invitrogen) containing 10% foetal bovine serum (FBS). The cells were maintained at 37 °C in 5% CO2 as an adherent monolayer and was passaged upon reaching confluence by standard cell culture techniques. MRC-5 cells were seeded at 5000 cells/well in 96-well plates to ensure full confluence (quiescence) and left overnight to adhere to the plate wells. The adherent cells were treated with 1–500 μM of compounds by dissolving in DMSO and serially diluting with media. TY-01 was used as the positive control. The final concentration of DMSO was 0.5% (v/v). After the 72 h drug incubation, […] stock MTT solution (5 mg/mL) was added, and the cells were incubated for another 3.5–4 h. The MTT solution containing media was carefully aspirated without displacing the purple crystals from the bottom, and […] acid-isopropanol was added to all wells and mixed slowly by shaking with an orbital shaker to dissolve the dark blue crystals. […] The determination of IC50 values was performed using GraphPad Prism 7 (GraphPad, San Diego, CA, USA). Each experiment was performed in triplicate and was repeated in three independent experiments.

S. aureus (SA38) = test: Minimum inhibitory concentration (MIC) assay against S. aureus; format: cell-based, Staphylococcus aureus; conditions: Staphylococcus aureus
Haemolysis assay = format: cell-based; conditions: washed human red blood cells
Experimental: A total of 20 mL of human blood collected in EDTA coated tubes was transferred into a 50 mL centrifuge tube and centrifuged at 500× g (700) for 5 min. The supernatant plasma was discarded and an equal volume of 1× PBS was added. The washing was repeated five times with cells mixed by inversion. The washed pallet was then resuspended in 1:10 with PBS to yield an RBC concentration of ~5 × 10^8 RBC/mL. The peptidomimetics were serially diluted with PBS, with final concentrations ranging from 8 to 500 µM. Milli-Q water and 1× PBS were used as positive and negative controls. The cells were then incubated at 37 °C for 3 h. Following incubation, the suspension was centrifuged at 1100× g for 5 min. The final optical density was measured at 540 nm. The percentage of haemolysis was calculated, using the following equation. % haemolysis=(absorbance of test sample−absorbance of diluent)/(absorbance of positive control−absorbance of diluent)×100%

[5] = test system: pre-established E. coli biofilms; test: Disruption of pre-established E. coli biofilms (crystal violet assay); format: cell-based, Escherichia coli; conditions: 2× MIC, 24 h treatment (64 μM for 17c)
Experimental: as §1

[6] = test system: pre-established S. aureus biofilms; set-up: method as in PMID 27405275; conditions: 4× MIC; cited from earlier work
[7] = highest concentration tested 250 μM
[8] = S. aureus SA38, read-out: MIC S. aureus
[9] = in trypticase soy broth (TSB), Mueller Hinton broth (MHB) or cationic adjusted MHB, read-out: MIC S. aureus in different growth media

Row | Compound | S. aureus cytoplasmic membrane disruption (increase in fluorescence intensity) [1] | disruption of pre-established S. aureus biofilms ([2]; 1× MIC, 24 h treatment) | MIC (E. coli (K12)) | inhibition of S. aureus biofilm formation ([3]; 0.5× MIC (sub-MIC)) | MIC (P. aeruginosa (PAO1)) | MIC (P. aeruginosa (PAO1); [7]) | IC50 [4] | MIC (S. aureus (SA38); [8]) | MIC (S. aureus (SA38); [9]) | hemolysis at 3 h, 32 µM (Haemolysis assay) | disruption of pre-established S. aureus biofilms ([2]; 4× MIC, 24 h treatment (32 μM for 17c)) | inhibition of S. aureus biofilm formation ([3]; 2× MIC (16 μM for 17c)) | inhibition of S. aureus biofilm formation ([3]; 4× MIC) | disruption of pre-established E. coli biofilms [5] | disruption of pre-established S. aureus biofilms [6]
1 | CCCCCCCCS(=O)(=O)Nc1ccc(-c2ccc(-c3ccccc3)cc2)cc1C(=O)C(=O)NCCC[N+](C)(C)C.[I-] [Compound 16d, N,N,N-Trimethyl-3-(2-(4-(octylsulfonamido)-[1,1′:4′,1″-terphenyl]-3-yl)-2-oxoacetamido)propan-1-aminium iodide] | least active compound | no antibiofilm activity | > 250 µM and > 180 µg/mL | 35% | > 180 µg/mL | > 250 µM | 53.7 µM and 38.6 µg/mL | 4 µM and 2.9 µg/mL | 4 µM and 2.9 µg/mL | 11% |  |  |  |  | 
2 | CCCCCCCCCCCCS(=O)(=O)Nc1ccc(-c2ccccc2)cc1C(=O)C(=O)NCCC[N+](C)(C)C.[I-] [Compound 17c, 3-(2-(4-(Dodecylsulfonamido)-[1,1′-biphenyl]-3-yl)-2-oxoacetamido)-N,N,N-trimethylpropan-1-aminium iodide] |  | 20–36% | 32 µM | 56% | > 175 µg/mL | > 250 µM | 57.5 µM and 40.2 µg/mL | 8 µM and 5.6 µg/mL | 8 µM and 5.6 µg/mL | 16% | 44% | 70% | 65% | 28% | 
3 | LL-37: cathelicidin (LL-37), antimicrobial peptide in phase IIb clinical trials for the treatment of chronic leg ulcers (LLGDFFRKSKEKIGKEFKRIVQRIKDFLRNLVPRTES; Antibacterial peptide LL-37; UniProt P49913 134-170, looked up) |  |  |  |  |  |  |  |  |  |  |  |  |  |  | about 40%
